# Results published in patent US7381749B2, “Sulfonamides as inhibitors of histone deacetylase for the treatment of disease” (Kalypsys, Inc., priority 2004, dated 2008).
# Legend:
# [1] = tested on: HDAC in cells; assay: Cellular IC50 (cellular assays: histone hyperacetylation cytoblot / differential cytotoxicity); format: cell-based; conditions: transformed cell lines (e.g. HeLa, A549, MCF-7); cell line not specified
# Experimental: These two secondary assays evaluates a compound's ability to inhibit HDAC in cells by measuring cellular histone acetylation levels. The cytoblot facilitates quantitative EC50 information for cellular HDAC inhibition. Transformed cell lines (e.g. HeLa, A549, MCF-7) are cultured under standard media and culture conditions prior to plating.
# Cells (approx. 2,500/well) are allowed to adhere 10-24 hours to wells of a 384-well Greiner PS assay plate in media containing 1-5% serum. Cells are treated with appropriate compound and specific concentrations for 0 to 24 hours. Cells are washed once with PBS (60 ul) and then fixed (95% ethanol, 5% acetic acid or 2% PFA) for 1 minute at RT (30 ul). Cells are blocked with 1% BSA for 1 hour and washed and stained with antibody (e.g. anti-Acetylated Histone H3, Upstate Biotechnology), followed by washing and incubation with an appropriate secondary antibody conjugated to HRP or fluorophore. For luminescence assays, signal is generated using Luminol substrate (Santa Cruz Biotechnology) and detected using an Aquest plate reader (Molecular Devices).
# Differential Cytotoxicity Assay:
# HDAC inhibitors display differential cytotoxicity toward certain transformed cell lines. Cells are cultured according to standard ATCC recommended conditions that are appropriate to each cell type. Compounds were tested for their ability to kill different cell types (normal and transformed) using the ATPlite luminescence ATP detection assay system (Perkin Elmer). Assays are run in either 384-well or 1536-well Greiner PS plates. Cells (30 ul or 5 ul, respectively) are dispensed using either multichannel pipette for 384-well plates, or proprietary Kalypsys bulk liquid dispenser for 1536-well plates. Compounds added using proprietary pin-transfer device (500 nL or 5 nL) and incubated 5 to 30 hours prior to analysis. Luminescence is measured using Aquest plate reader (Molecular Devices).
# [2] = tested on: HDAC; assay: In vitro HDAC-inhibition assay (Fluor de Lys fluorescent substrate); format: biochemical; conditions: HDAC enzyme source (e.g. partially purified nuclear extract or immunopurified HDAC complexes)
# Experimental: In vitro HDAC-Inhibition Assay:
# This assay measures a compound's ability to inhibit acetyl-lysine deacetylation in vitro and was used as both a primary screening method as well as for IC50 determinations of confirmed inhibitors. The assay is performed in vitro using an HDAC enzyme source (e.g. partially purified nuclear extract or immunopurified HDAC complexes) and a proprietary fluorescent substrate/developer system (HDAC Quantizyme Fluor de Lys Fluorescent Activity Assay, BIOMOL). The assay is run in 1,536-well Greiner white-bottom plates using the following volumes and order of addition: • Step 1: Enzyme (2.5 ul) source added to plate (from refrigerated container) • Step 2: Compounds (50 nl) added with pin transfer device • Step 3: Fluor de Lys (2.5 ul) substrate added, incubate at RT, 30 minutes • Step 4: Developer (5 ul) solution is added (containing TSA), to stop reaction • Step 5: Plate Reader—data collection • The deacetylated fluorophore is excited with 360 nm light and the emitted light (460 nm) is detected on an automated fluorometric plate reader (Aquest, Molecular Devices).
Structure (SMILES),IC50 [2] [nM],IC50 [1] [nM]
"O=C(CSC(=O)c1cccnc1)c1ccc(NS(=O)(=O)c2ccc(OC(F)(F)F)cc2)cc1 [Example 02, Thionicotinic acid S-{2-oxo-2-[4-(4-trifluorometlioxy-benzenesulfonylamino)-phenyl]-ethyl}ester]",,< 10000
"O=C(CSC(=O)c1ccco1)c1ccc(NS(=O)(=O)c2ccc(OC(F)(F)F)cc2)cc1 [Example 04, Furan-2-carbothioic acid S-{2-oxo-2-[4-(4-trifluoromethoxy-benzenesulfonylamino)-phenyl]-ethyl}ester]",< 1000,
"CC(=O)Oc1ccccc1C(=O)SCC(=O)c1ccc(NS(=O)(=O)c2ccc(OC(F)(F)F)cc2)cc1 [Example 06, Acetic acid 2-{2-oxo-2-[4-(4-trifluoromethoxy-benzenesulfonylamino)-phenyl]-ethylsulfanylcarbonyl}-phenyl ester]",,< 1000
"COC(=O)SCC(=O)c1ccc(NS(=O)(=O)c2ccc(OC(F)(F)F)cc2)cc1 [Example 08, Thiocarbonic acid O-methyl ester S-{2-oxo-2-[4-(4-trifluoromethoxy-benzenesulfonylamino)-phenyl]-ethyl}ester]",< 10000,< 1000
"CC(=O)SCC(=O)c1ccc(N(C)S(=O)(=O)c2ccc(OC(F)(F)F)cc2)cc1 [Example 12, Thioacetic acid S-(2-{4-[methyl-(4-trifluoromethoxy-benzenesulfonyl)-amino]phenyl}-2-oxo-ethyl)ester]",,< 10000
"CC(=O)SCC(=O)c1ccc(NS(=O)(=O)c2cccc(C(F)(F)F)c2)cc1 [Example 17, Thioacetic acid S-{2-oxo-2-[4-(3-trifluoromethyl-benzenesulfonylamino)-phenyl]-ethyl}ester]",< 1000,< 10000
"CC(=O)SCC(=O)c1ccc(NS(=O)(=O)c2ccc(F)cc2C)cc1 [Example 18, Thioacetic acid S-{2-[4-(4-fluoro-2-methyl-benzenesulfonylamino)-phenyl]-2-oxo-ethyl}ester]",< 1000,< 1000
CC(=O)SCC(=O)c1ccc(NS(=O)(=O)c2cc(C)oc2C)cc1 [Example 31],,< 10000
CC(=O)SCC(=O)c1ccc(NS(=O)(=O)c2ccccc2)cc1 [Example 33],< 1000,< 10000
CC(=O)SCC(=O)c1ccc(NS(=O)(=O)c2ccc(F)cc2)cc1 [Example 34],< 1000,< 1000
CC(=O)SCC(=O)c1ccc(NS(=O)(=O)c2ccccc2F)cc1 [Example 35],< 1000,< 1000
CC(=O)SCC(=O)c1cccc(NS(=O)(=O)c2ccc(OC(F)(F)F)cc2)c1 [Example 39],< 1000,< 1000
CC(=O)SCC(=O)c1ccccc1NS(=O)(=O)c1ccc(OC(F)(F)F)cc1 [Example 40],< 10000,> 50000
"CC(=O)SCC(=O)c1ccc(S(=O)(=O)Nc2ccc(OC(F)(F)F)cc2)cc1 [Example 45, Thioacetic acid S-{2-oxo-2-[4-(4-trifluoromethoxy-phenylsulfamoyl)-phenyl]-ethyl}ester]",,< 10000
CC(=O)SCC(=O)c1ccc(NS(=O)(=O)c2cccc(F)c2)cc1 [Example 46],< 1000,< 1000

# Now from value to molecule, other results behind:
IC50 [2] [nM],Structure (SMILES),IC50 [1] [nM]
< 1000,CN(C)c1ccc(C(=O)SCC(=O)c2ccc(NS(=O)(=O)c3ccc(OC(F)(F)F)cc3)cc2)cc1 [Example 07],< 10000
< 1000,"O=C(CSC(=O)c1ccccn1)c1ccc(NS(=O)(=O)c2ccc(OC(F)(F)F)cc2)cc1 [Example 09, Pyridine-2-carbothioic acid S-{2-oxo-2-[4-(4-trifluoromethoxy-benzenesulfonylamino)-phenyl]-ethyl}ester]",< 1000
< 1000,"NCC(=O)SCC(=O)c1ccc(NS(=O)(=O)c2ccc(OC(F)(F)F)cc2)cc1 [Example 11, Amino-thioacetic acid S-{2-oxo-2-[4-(4-trifluoromethoxy-benzenesulfonylamino)-phenyl]-ethyl}ester]",
< 10000,"CC(=O)SCC(=O)c1ccc(N(C(C)C)S(=O)(=O)c2ccc(OC(F)(F)F)cc2)cc1 [Example 13, Thioacetic acid S-(2-{4-[isopropyl-(4-trifluoromethoxy-benzenesulfonyl)-amino]-phenyl}-2-oxo-ethyl)ester]",
< 1000,"CC(=O)SCC(=O)c1ccc(NS(=O)(=O)c2ccc(OC(F)(F)F)cc2)cc1Cl [Example 14, Thioacetic acid S-{2-[2-chloro-4-(4-trifluoromethoxy-benzenesulfonylamino)-phenyl]-2-oxo-ethyl}ester]",< 50000
< 1000,"CC(=O)SCC(=O)c1ccc(NS(=O)(=O)c2ccc(OC(F)(F)F)cc2)c(F)c1 [Example 15, Thioacetic acid S-{2-[3-fluoro-4-(4-trifluoromethoxy-benzenesulfonylamino)-phenyl]-2-oxo-ethyl}ester]",
< 1000,"CC(=O)SCC(=O)c1ccc(NS(=O)(=O)c2ccc(C)cc2)cc1 [Example 16, Thioacetic acid S-{12-oxo-2-[4-(toluene-4-sulfonylamino)-phenyl]-ethyl}ester]",< 1000
< 1000,"CC(=O)SCC(=O)c1ccc(NS(=O)(=O)c2ccc(Cl)c(C(F)(F)F)c2)cc1 [Example 20, Thioacetic acid S-{2-[4-(4-chloro-3-trifluoromethyl-benzenesulfonylamino)-phenyl]-2-oxo-ethyl}ester]",< 1000
< 1000,"COc1cccc(S(=O)(=O)Nc2ccc(C(=O)CSC(C)=O)cc2)c1 [Example 21, Thioacetic acid S-{2-[4-(3-methoxy-benzenesulfonylamino)-phenyl]-2-oxo-ethyl}ester]",< 1000
< 1000,"CCS(=O)(=O)Nc1ccc(C(=O)CSC(C)=O)cc1 [Example 22, Thioacetic acid S-[2-(4-ethanesulfonylamino-phenyl)-2-oxo-ethyl]ester]",< 10000
< 1000,"CC(=O)SCC(=O)c1ccc(NS(=O)(=O)c2cc(C)cc(C)c2)cc1 [Example 23, Thioacetic acid 2-[4-(3,5-dimethyl-benzenesulfonylamino)-phenyl]-2-oxo-ethyl ester]",< 10000
< 1000,"CC(=O)SCC(=O)c1ccc(NS(=O)(=O)c2cn(C)c(C)n2)cc1 [Example 24, Thioacetic acid S-{2-[4-(1,2-dimethyl-1H-imidazole-4-sulfonylamino)-phenyl]-2-oxo-ethyl}ester]",< 10000
< 1000,"CC(=O)SCC(=O)c1ccc(NS(=O)(=O)C(C)C)cc1 [Example 25, Thioacetic acid S-{2-oxo-2-[4-(propane-2-sulfonylamino)-phenyl]-ethyl}ester]",
< 1000,COc1ccc(S(=O)(=O)Nc2ccc(C(=O)CSC(C)=O)cc2)cc1OC [Example 27],< 1000
< 1000,CC(=O)SCC(=O)c1ccc(NS(=O)(=O)c2ccc(Cl)cc2Cl)cc1 [Example 28],< 1000
< 1000,CC(=O)SCC(=O)c1ccc(NS(=O)(=O)c2c(C)noc2C)cc1 [Example 29],< 10000
< 1000,CC(=O)SCC(=O)c1ccc(NS(=O)(=O)c2sc(C)nc2C)cc1 [Example 30],< 1000
< 1000,CC(=O)SCC(=O)c1ccc(NS(=O)(=O)c2ccc(Cl)cc2)cc1 [Example 36],< 1000
< 1000,CC(=O)SCC(=O)c1ccc(NS(=O)(=O)c2cccc(Cl)c2)cc1 [Example 37],< 1000
< 1000,CC(=O)SCC(=O)c1ccc(NS(=O)(=O)c2ccccc2Cl)cc1 [Example 38],< 1000
< 1000,CC(=O)SCC(=O)c1ccc(NS(=O)(=O)c2cccc(OC(F)(F)F)c2)cc1 [Example 41],< 1000
< 50000,CC(=O)SCC(=O)c1sc(NS(=O)(=O)c2ccc(OC(F)(F)F)cc2)nc1C [Example 42],
< 50000,"CC(=O)SCC(=O)c1sc(NS(=O)(=O)c2ccc(Cl)c(Cl)c2)nc1C [Example 43, Thioacetic acid-S-{2-[2-(3,4-Dichlorobenzenesulfonylamino)-4-methyl-thiazol-5-yl]-2-oxo-ethyl}-ester]",
